Measurements: publication PMC8428568, “Discovery of re-purposed drugs that slow SARS-CoV-2 replication in human cells” (PLoS Pathogens, 2021)
Like-named read-outs stand apart in the source and are kept apart here.

Columns and labels:
[1] = test system: recombinant NLuc; format: biochemical; settings: for Relative Recombinant NLUC: recombinant NLuc activity relative to DMSO; for Reads Counts per second (read 1) / Reads Counts per second (read 4) / Reads Counts per second (read 3): recombinant NLuc; for Reads Counts per second (read 1): first read column; for Reads Counts per second (read 4): fourth read column; for Reads Counts per second (read 3): third read column
[2] = test system: SARS-CoV-2-ΔOrf7a-NLuc virus; test: Post-infection treatment: Vero cells infected 24 hrs with SARS-CoV-2-ΔOrf7a-NLuc, then compound for 48 hrs, bioluminescence; format: cell-based; settings: for Post-infection at IC50: change in replication relative to DMSO, cells infected 24 hrs, then treated 48 hrs
[3] = test system: SARS-CoV-2-ΔOrf7a-NLuc virus; test: microbe, parasite or virus in culture; format: cell-based; settings: for activity at 10 µM: Severe acute respiratory syndrome coronavirus 2, Vero, 72 h, read-out: Mean relative luminescence (n=4); for IC50: Severe acute respiratory syndrome coronavirus 2
[4] = test system: HUH7 cells; settings: HUH7 screen
[5] = test system: Vero cells
[6] = test system: SARS-CoV-2-ΔOrf7a-NLuc virus; test: microbe, parasite or virus in culture; format: cell-based; settings: for Mean relative luminescence (n=4): HUH7 screen; for IC50: read-out: HUH7 IC50
[7] = 1 = untreated, 0 = total inhibition
[8] = Vero screen, relative luminescence
[9] = Vero cells, 10 μM, 1 = DMSO-treated infected cells
[10] = Severe acute respiratory syndrome coronavirus 2, Huh-7

| SMILES | Relative Recombinant NLUC [1] | Reads Counts per second (read 1) [1] | Reads Counts per second (read 4) [1] | Reads Counts per second (read 3) [1] | Post-infection at IC50 [2] | % activity in Vero 100PFU screen [3] | activity at 10 µM [3, 7] | IC50 ([3]; Vero cells) | reduction of virus replication ([3]; Vero cells, 100PFU screen, 10 μM) | Mean relative luminescence (n=4) [3, 8] | PrestoBlue relative viability [4] | PrestoBlue relative viability [5, 9] | PrestoBlue relative viability ([5]; Vero screen) | suppression of SARS-CoV-2 replication [6] | Mean relative luminescence (n=4) [6] | IC50 [6, 10] | effect on replication in cells already infected ([2]; Vero cells infected 24 hrs then treated 48 hrs) | effect on virus replication [6] | Mean relative luminescence (n=4) [3, 7] | IC50 [6] |
| --- | --- | --- | --- | --- | --- | --- | --- | --- | --- | --- | --- | --- | --- | --- | --- | --- | --- | --- | --- | --- |
| C=C1CC[C@H](O)C/C1=C/C=C1\CCC[C@]2(C)[C@@H]([C@H](C)CCCC(C)C)CC[C@@H]12 [Vitamin D3] | 0.9682 | 370629 Counts per second | 364312 Counts per second | 360711 Counts per second | -30% | 12% | 9.68% | 10000 nM | ≥ 85% | 0.09678 | 0.6418 | 1.049 | 1.049 | ≥ 85% | 0.02567 | 3000 nM | – | – | – | – |
| CCN1CCN(Cc2ccc(Nc3ncc(F)c(-c4cc(F)c5nc(C)n(C(C)C)c5c4)n3)nc2)CC1 [LY2835219] | 0.9189 | 345999 Counts per second | 348685 Counts per second | 345910 Counts per second | -40% | 3.32% | 2.68% | 1000 nM | – | 0.02684 | 0.6043 | 0.5512 | 0.5512 | – | 0.07242 | 200 nM | – | – | – | – |
| Cc1[nH]c2ccccc2c1CCNCc1ccc(/C=C/C(=O)NO)cc1 [Panobinostat] | 0.8963 | 330994 Counts per second | 341728 Counts per second | 343634 Counts per second | -25% | 3.68% | 1.87% | < 200 nM | – | 0.01867 | 0.753 | 0.6021 | 0.6021 | – | 0.05897 | < 200 nM | a more modest effect on replication | completely blocked replication of SARS-CoV-2 at all doses tested | – | – |
| COC(=O)C1=C(C)NC(C)=C(C(=O)OCCN2CCN(C(c3ccccc3)c3ccccc3)CC2)C1c1cccc([N+](=O)[O-])c1 (stereo not shown) [Manidipine] | 0.6615 | 249924 Counts per second | 251205 Counts per second | 250350 Counts per second | -50% | 12% | 10.9% | 7500 nM | – | 0.1086 | 0.5396 | 1.036 | 1.036 | – | 0.1 | 2000 nM | – | – | – | – |
| COC(=O)C1=C(C)NC(C)=C(C(=O)OCCN2CCN(C(c3ccccc3)c3ccccc3)CC2)C1c1cccc([N+](=O)[O-])c1.Cl.Cl (stereo not shown) [Manidipine 2HCl] | 0.6382 | 242466 Counts per second | 239469 Counts per second | 242968 Counts per second | -50% | 12% | – | – | – | 0.1096 | 0.5726 | 0.813 | 0.813 | – | 0.04447 | – | – | – | 0.1096 | 2500 nM |
